In ChEMBL document CHEMBL1201862, “PubChem BioAssay data set” (2004):
Active and inactive are the calls of the source.

Assays:
H4 = assay: Luminescence Cell-Based Dose Response HTS to Identify Activators of 5'UTR Stem-Loop Driven Prion Protein mRNA Translation in H4 Neuroglioblastoma Cells. [Related pubchem assays: 1829 (Project Summary), 1814 (Primary HTS)]; format: functional; settings: Homo sapiens
[1] = Luminescence Cell-Based Dose Response HTS to Identify Activators of Luciferase Translation or Activity in H4 […] Cells. [Related pubchem assays: 1829 (Project Summary), 1814 (Primary HTS)]; format: functional
[2] = biological target: Dual specificity tyrosine-phosphorylation-regulated kinase 1A (Rattus norvegicus, UniProt Q63470); format: biochemical, Homo sapiens
[3] = Luminescence Cell-Based Dose Confirmation HTS to Identify Activators of 5'UTR Stem-Loop Driven Alpha-Synuclein mRNA Translation in H4 Neuroglioblastoma Cells. [Related pubchem assays: 1829 (Project Summary), 1814 (Primary HTS)]; format: functional
[4] = biological target: FAD-linked sulfhydryl oxidase ALR (Homo sapiens, UniProt P55789); assay: ALR-catalysed DTT oxidation blockers – biochemical, H2O2 detection, luminescence, cherry-pick, dose response (AID 493248)
[5] = biological target: Dual specificity protein kinase CLK1 (Homo sapiens, UniProt P49759); assay: inhibition of human CLK1 activity – biochemical, cherry-picked samples, selectivity assay for Dyrk1A inhibitor project, dose response (AID 588811)
A-375 [6] = assay: proliferation inhibition in MITF-low A375 cells – cell-based, cherry-pick samples, set 2, counter-screen for MITF modulator project, dose response (AID 540335); format: functional; settings: Homo sapiens
[7] = biological target: T1, Sentrin-specific protease 6 (Homo sapiens, UniProt Q9GZR1); format: functional;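 note: Luminescence-based dose-response confirmatory assay of SENP6 inhibition, following up an ultra-high-throughput screen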
T1 sequence (Q9GZR1 whole entry): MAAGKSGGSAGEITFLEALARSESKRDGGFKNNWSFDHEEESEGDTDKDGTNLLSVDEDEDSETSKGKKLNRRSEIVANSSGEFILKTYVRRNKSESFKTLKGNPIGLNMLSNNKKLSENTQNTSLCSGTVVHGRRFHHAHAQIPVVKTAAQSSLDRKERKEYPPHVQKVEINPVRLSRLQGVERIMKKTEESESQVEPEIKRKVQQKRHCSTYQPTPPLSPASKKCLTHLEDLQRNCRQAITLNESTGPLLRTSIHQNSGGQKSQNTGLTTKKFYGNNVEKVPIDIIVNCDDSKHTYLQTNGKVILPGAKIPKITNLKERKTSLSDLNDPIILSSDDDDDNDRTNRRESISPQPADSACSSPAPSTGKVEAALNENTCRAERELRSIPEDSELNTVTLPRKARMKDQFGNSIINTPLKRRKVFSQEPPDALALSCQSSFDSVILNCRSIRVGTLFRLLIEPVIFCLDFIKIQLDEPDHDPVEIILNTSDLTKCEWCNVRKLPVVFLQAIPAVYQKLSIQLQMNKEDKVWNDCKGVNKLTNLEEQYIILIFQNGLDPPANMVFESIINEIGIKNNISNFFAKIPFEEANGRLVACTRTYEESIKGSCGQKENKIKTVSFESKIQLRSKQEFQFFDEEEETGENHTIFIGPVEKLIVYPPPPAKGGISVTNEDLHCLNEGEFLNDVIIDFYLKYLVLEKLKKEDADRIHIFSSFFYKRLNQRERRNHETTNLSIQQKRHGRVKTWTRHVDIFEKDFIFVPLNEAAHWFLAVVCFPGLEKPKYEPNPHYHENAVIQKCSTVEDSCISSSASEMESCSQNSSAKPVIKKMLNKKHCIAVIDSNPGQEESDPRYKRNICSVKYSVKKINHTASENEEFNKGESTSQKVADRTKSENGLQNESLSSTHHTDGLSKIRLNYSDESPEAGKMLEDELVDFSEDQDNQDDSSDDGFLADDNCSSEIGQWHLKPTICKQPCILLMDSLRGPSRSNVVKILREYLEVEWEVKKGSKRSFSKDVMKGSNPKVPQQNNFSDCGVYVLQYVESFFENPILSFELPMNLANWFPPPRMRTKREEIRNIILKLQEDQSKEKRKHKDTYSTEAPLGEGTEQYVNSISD

[8] = biological target: T2, Sentrin-specific protease 8 (Homo sapiens, UniProt Q96LD8); format: functional;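 note: luminescence read-out of SENP8 inhibition, dose-response confirmation following an ultra-high-throughput screen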
T2 sequence (Q96LD8 whole entry): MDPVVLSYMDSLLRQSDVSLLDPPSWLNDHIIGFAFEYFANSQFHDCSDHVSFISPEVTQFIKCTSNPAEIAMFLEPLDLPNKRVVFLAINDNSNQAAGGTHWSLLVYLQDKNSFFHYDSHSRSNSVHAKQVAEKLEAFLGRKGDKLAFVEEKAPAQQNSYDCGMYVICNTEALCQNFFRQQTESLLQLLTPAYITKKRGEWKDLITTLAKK

[9] = biological target: T3, Sentrin-specific protease 7 (Homo sapiens, UniProt Q9BQF6); format: functional;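 note: Luminescence-based dose-response confirmation of ultra-high-throughput screening hits, measuring inhibition of SENP7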
T3 sequence (Q9BQF6 whole entry): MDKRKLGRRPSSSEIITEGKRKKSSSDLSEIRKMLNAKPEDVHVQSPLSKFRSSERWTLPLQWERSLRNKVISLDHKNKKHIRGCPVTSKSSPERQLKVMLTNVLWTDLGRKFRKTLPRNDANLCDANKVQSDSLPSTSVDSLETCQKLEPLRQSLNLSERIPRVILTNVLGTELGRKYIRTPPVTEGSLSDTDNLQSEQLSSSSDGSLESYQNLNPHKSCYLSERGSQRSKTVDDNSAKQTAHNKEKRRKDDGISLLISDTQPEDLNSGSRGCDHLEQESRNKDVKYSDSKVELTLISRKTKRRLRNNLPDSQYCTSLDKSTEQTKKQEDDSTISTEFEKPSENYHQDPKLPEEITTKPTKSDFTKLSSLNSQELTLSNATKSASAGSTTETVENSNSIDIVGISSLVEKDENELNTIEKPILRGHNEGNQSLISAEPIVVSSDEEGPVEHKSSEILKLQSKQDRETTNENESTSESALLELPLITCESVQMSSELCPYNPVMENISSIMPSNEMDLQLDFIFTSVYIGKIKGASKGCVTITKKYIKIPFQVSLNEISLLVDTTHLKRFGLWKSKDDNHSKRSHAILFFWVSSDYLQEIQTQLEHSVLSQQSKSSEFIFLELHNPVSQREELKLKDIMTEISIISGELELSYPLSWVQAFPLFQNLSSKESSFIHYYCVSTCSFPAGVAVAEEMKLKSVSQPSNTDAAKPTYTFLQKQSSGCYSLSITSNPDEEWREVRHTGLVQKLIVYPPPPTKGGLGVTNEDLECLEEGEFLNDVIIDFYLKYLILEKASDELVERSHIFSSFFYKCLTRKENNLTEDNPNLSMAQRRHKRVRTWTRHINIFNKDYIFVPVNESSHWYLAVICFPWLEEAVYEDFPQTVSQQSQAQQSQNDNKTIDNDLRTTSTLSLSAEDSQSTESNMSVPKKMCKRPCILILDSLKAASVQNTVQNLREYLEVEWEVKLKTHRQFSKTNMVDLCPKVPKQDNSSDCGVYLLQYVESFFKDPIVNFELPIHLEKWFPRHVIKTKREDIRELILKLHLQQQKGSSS

A-375 [10] = assay: MITF: Counter assay: A375 proliferation Measured in Cell-Based System Using Plate Reader - 2084-03_Inhibitor_Dose_DryPowder_Activity. [Related pubchem assays (depositor defined):AID488944]; format: functional; settings: Homo sapiens
Caspase-3 = biological target: T4, Caspase-3 (Homo sapiens, UniProt P42574); format: functional;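 note: Dose-response selectivity test against caspase-3 for candidate inhibitors of sentrin-specific proteases (SENPs)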
T4 sequence (P42574 whole entry): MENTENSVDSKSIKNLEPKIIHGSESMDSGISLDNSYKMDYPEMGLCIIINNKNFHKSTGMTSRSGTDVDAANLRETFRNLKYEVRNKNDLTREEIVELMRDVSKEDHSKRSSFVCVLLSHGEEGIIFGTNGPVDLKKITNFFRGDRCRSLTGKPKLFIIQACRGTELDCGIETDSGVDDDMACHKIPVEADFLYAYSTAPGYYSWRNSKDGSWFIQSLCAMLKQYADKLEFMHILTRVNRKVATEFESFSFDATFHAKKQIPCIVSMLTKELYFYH

NIH3T3 = assay: mammalian cell viability counter-check – Alamar Blue, fluconazole, dry powder, cytotoxicity control for antifungal drug resistance project, dose response (AID 488809); format: functional, cell-based; settings: Mus musculus
[11] = biological target: T5, Carboxy-terminal domain RNA polymerase II polypeptide A small phosphatase 1 (Homo sapiens, UniProt Q9GZU7); assay: CTDSP1 inhibitors, concentration-response, biochemical, absorbance readout, ultra-high-throughput screen actives (AID 540297); format: functional
T5 sequence (Q9GZU7 whole entry): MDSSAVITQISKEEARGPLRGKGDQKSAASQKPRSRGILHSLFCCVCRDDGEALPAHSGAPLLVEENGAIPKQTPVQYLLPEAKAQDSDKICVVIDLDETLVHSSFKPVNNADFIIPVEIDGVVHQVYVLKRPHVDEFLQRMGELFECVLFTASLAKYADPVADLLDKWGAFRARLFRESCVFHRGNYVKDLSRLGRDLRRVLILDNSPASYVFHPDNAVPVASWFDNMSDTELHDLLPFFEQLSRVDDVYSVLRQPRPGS

[12] = biological target: T6, Beta-adrenergic receptor kinase 1 (Homo sapiens, UniProt P25098); assay: blockers of aptamer binding to GRK2 – biochemical, flow cytometry beads, FAM-aptamer, powder set 1, dose response (AID 588720)
[13] = biological target: T6, Beta-adrenergic receptor kinase 1; assay: aptamer displacement from bead-bound GRK2 – biochemical, cherry pick 1, bead flow cytometry, dose response (AID 504500)
Caspase-6 = biological target: T7, Caspase-6 (Homo sapiens, UniProt P55212); assay: inhibition of CASP6 peptide cleavage – biochemical, VEID-R110 fluorescence, cherry-pick, dose response (AID 720632)
T7 sequence (P55212 whole entry): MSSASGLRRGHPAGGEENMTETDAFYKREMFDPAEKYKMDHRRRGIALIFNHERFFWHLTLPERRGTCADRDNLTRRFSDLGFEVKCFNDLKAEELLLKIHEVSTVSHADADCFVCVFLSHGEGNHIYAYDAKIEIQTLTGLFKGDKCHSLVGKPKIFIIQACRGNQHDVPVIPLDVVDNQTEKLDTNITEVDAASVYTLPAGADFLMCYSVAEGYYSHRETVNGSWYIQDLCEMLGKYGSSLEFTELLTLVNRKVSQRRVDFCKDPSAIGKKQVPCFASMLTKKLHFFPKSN

[14] = biological target: T8, Histone-lysine N-methyltransferase NSD2 (Homo sapiens, UniProt O96028); format: biochemical
T8 sequence (O96028 whole entry): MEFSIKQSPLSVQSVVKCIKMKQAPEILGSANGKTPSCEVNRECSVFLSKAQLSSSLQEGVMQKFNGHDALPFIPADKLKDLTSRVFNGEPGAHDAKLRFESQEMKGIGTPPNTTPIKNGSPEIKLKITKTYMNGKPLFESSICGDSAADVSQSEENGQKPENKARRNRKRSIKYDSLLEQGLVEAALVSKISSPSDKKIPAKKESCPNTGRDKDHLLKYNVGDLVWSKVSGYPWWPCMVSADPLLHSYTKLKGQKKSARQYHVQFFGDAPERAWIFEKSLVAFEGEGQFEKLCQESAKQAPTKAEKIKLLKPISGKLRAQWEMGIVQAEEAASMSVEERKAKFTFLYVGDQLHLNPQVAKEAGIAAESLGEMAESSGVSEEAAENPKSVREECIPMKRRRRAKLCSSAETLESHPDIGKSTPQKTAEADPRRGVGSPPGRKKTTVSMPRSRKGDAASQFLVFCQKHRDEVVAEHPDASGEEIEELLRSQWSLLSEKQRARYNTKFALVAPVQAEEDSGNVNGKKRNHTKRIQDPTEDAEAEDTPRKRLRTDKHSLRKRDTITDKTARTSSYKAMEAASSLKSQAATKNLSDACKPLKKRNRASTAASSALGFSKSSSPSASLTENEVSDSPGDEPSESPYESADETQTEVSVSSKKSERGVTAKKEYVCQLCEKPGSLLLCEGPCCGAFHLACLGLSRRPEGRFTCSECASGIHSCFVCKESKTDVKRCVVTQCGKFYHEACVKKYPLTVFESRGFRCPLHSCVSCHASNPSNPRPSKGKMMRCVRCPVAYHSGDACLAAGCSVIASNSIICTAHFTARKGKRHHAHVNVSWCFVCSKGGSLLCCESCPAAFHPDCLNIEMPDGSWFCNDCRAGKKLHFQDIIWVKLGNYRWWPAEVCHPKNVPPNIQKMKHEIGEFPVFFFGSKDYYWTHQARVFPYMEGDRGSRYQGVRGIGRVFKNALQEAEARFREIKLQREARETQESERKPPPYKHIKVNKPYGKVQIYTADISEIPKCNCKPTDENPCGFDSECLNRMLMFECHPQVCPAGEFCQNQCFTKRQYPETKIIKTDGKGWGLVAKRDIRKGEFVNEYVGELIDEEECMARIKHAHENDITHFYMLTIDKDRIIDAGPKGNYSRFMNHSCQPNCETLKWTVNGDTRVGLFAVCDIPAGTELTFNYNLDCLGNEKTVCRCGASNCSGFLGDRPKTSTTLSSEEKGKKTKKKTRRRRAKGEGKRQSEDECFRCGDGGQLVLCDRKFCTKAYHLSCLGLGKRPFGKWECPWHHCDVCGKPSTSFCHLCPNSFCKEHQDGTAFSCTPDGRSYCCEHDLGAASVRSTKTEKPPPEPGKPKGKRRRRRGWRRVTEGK

Large T antigen = Large T antigen (Simian virus 40, UniProt P03070); format: functional, Betapolyomavirus macacae;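 note: Confirmatory-stage PubChem screen for compounds that inhibit SV40 T antigen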
[15] = biological target: Heat shock protein HSP 90-alpha (Homo sapiens, UniProt P07900); format: functional, organism-based
Escherichia coli [16] = assay: microbe, parasite or virus in culture
Escherichia coli [17] = assay: microbe, parasite or virus in culture; remark: listed apart in the source

T6 sequence (P25098 whole entry): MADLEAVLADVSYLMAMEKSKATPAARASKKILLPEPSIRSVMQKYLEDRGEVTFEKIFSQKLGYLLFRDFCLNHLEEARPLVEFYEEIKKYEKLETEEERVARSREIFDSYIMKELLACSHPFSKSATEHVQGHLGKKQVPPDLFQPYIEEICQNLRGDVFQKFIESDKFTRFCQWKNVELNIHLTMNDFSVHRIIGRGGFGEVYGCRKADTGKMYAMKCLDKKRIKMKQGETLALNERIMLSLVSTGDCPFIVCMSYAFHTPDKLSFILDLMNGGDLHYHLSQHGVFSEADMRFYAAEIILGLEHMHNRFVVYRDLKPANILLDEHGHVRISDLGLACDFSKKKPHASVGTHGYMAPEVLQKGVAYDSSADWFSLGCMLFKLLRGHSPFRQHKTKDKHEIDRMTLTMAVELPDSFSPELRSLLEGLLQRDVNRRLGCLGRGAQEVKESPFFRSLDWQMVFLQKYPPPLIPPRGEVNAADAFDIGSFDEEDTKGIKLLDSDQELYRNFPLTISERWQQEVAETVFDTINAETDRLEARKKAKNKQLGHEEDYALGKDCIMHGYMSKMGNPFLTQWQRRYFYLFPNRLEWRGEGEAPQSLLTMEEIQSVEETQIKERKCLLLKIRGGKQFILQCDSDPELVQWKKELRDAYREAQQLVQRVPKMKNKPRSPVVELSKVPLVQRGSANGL
Chain of FAD-linked sulfhydryl oxidase ALR (P55789 whole entry): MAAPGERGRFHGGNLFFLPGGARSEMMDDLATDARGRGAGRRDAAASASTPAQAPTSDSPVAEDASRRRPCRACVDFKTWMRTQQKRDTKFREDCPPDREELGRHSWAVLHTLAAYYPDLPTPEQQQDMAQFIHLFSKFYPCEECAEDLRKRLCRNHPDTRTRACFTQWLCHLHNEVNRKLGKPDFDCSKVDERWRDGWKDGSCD
Chain of Large T antigen (P03070 whole entry): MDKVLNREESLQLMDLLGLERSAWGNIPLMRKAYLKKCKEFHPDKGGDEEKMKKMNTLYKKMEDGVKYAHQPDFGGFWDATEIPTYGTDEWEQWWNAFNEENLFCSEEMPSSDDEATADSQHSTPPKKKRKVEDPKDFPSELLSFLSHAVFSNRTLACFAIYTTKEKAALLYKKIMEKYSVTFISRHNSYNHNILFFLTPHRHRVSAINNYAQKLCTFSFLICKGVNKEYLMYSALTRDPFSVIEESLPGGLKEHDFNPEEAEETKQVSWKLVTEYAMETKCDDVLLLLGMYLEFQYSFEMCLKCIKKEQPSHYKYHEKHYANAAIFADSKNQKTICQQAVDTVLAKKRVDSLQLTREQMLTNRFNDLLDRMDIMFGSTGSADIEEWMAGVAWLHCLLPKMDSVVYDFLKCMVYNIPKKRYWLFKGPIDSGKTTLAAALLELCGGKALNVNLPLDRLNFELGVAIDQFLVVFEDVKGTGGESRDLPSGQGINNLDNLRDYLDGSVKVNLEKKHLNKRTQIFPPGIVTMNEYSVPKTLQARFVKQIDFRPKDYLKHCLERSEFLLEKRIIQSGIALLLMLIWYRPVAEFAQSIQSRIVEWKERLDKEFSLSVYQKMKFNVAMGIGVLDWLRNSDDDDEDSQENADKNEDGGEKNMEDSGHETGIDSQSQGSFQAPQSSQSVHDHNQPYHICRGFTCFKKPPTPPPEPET
Chain of Dual specificity protein kinase CLK1 (P49759 whole entry): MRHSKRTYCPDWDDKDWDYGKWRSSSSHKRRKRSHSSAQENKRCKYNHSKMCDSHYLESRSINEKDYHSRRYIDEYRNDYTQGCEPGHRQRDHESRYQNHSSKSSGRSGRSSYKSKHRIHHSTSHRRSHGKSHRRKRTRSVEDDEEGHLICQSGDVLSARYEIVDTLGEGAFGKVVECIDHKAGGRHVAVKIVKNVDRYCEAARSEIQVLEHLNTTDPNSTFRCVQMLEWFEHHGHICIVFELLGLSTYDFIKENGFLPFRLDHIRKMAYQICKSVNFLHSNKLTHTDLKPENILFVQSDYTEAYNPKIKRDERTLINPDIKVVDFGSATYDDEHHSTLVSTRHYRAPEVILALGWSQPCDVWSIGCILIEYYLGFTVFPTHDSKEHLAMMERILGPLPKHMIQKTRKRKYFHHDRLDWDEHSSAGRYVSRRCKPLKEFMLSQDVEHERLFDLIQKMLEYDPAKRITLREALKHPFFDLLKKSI

SMILES: CC(=O)Nc1ccc(SCc2ncc(-c3ccccc3)o2)cc1
- EC50 (H4): 11.2 µM (active)
- EC50 [1]: 0.237 µM (active)
- AC50 [2]: 4.26 µM (active)
- EC50 [3]: 34.3 µM (active)
- AC50 [4]: 0.44 µM (active)
- AC50 [5]: 0.429 µM (active)

SMILES: CCOc1ccc2nc(NC(=O)Cc3cccs3)sc2c1
- AC50 (A-375 [6]): > 35 µM (active)
- IC50 [7]: 33.2 µM (active)
- IC50 [8]: 16.2 µM (active)
- IC50 [9]: 7.38 µM (active)
- AC50 (A-375 [10]): > 35 µM (active)
- IC50 (Caspase-3): 22.9 µM (active)

SMILES: O=C(Cn1nc(-c2ccccc2)c2ccccc21)NCc1ccc(Cl)cc1
- AC50 (NIH3T3): 131 µM (active)

SMILES: O=C(O)Cc1ccc(-n2cccc2)cc1
- IC50 [11]: 4.01 µM (active)
- EC50 [12]: 3.21 µM (active)
- EC50 [13]: 36.2 µM (inactive)
- AC50 (Caspase-6): 2.7 µM (active)
- AC50 [14]: 11.9 µM (active)

SMILES: [O-][n+]1ccccc1S [PYRITHIONE]
- IC50 (Large T antigen): 30.3 µM (active)
- AC50 [15]: 1.01 µM (active)
- AC50 (Escherichia coli [16]): 9.47 µM (active)
- AC50 [4]: 0.432 µM (active)
- AC50 (Escherichia coli [17]): 9.06 µM (active)
